Source: patent US9187472B2 (AbbVie Inc., priority 2012, dated 2015)

These compounds were tested on PC3 cells (assay: NAMPT Cell Proliferation Assay). Settings: Homo sapiens, PC-3, 120 h, 5 days incubation, cell viability by Cell Titer Glo.
Assay type: cell-based
How it was run: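 Seed PC3 at 500 cells/well (RPMI, 10% HI-FBS), attach overnight; add compound, 10-fold series 10 μM → 1×10^−5 μM; incubate 5 d, 37° C/5% CO2; luminescent viability readout; fit % inhibition sigmoidally for IC50.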

Row | SMILES | IC50 [nM]
1 | O=C(NCc1ccn2ccnc2c1)Nc1ccc(C2CCN(C(=O)c3cc(Cl)ncc3F)CC2)cc1 [Example 1016, 1-(4-{1-[(2-chloro-5-fluoropyridin-4-yl)carbonyl]piperidin-4-yl}phenyl)-3-(imidazo[1,2-a]pyridin-7-ylmethyl)urea] | 2.19
2 | O=C(NCc1ccn2ccnc2c1)Nc1ccc(C2CCN(C(=O)c3ncccc3Cl)CC2)cc1 [Example 1019, 1-(4-{1-[(3-chloropyridin-2-yl)carbonyl]piperidin-4-yl}phenyl)-3-(imidazo[1,2-a]pyridin-7-ylmethyl)urea] | 1.98
3 | O=C(NCc1ccn2ccnc2c1)Nc1ccc(C2CCN(C(=O)C3Cc4ccccc4O3)CC2)cc1 (stereo not drawn) [Example 1024, 1-{4-[1-(2,3-dihydro-1-benzofuran-2-ylcarbonyl)piperidin-4-yl]phenyl}-3-(imidazo[1,2-a]pyridin-7-ylmethyl)urea] | 3.52
4 | COC1CCC(C(=O)N2CCC(c3ccc(NC(=O)NCc4ccn5ccnc5c4)cc3)CC2)CC1 (stereo not drawn) [Example 1025, 1-(imidazo[1,2-a]pyridin-7-ylmethyl)-3-(4-{1-[(4-methoxycyclohexyl)carbonyl]piperidin-4-yl}phenyl)urea] | 0.808
5 | O=C(NCc1ccn2ccnc2c1)Nc1ccc(C2CCN(C(=O)c3cccc4c3OCCO4)CC2)cc1 [Example 1026, 1-{4-[1-(2,3-dihydro-1,4-benzodioxin-5-ylcarbonyl)piperidin-4-yl]phenyl}-3-(imidazo[1,2-a]pyridin-7-ylmethyl)urea] | 1.56
6 | O=C(NCc1ccn2ccnc2c1)Nc1ccc(C2CCN(C(=O)c3cncc4ccccc34)CC2)cc1 [Example 1027, 1-(imidazo[1,2-a]pyridin-7-ylmethyl)-3-{4-[1-(isoquinolin-4-ylcarbonyl)piperidin-4-yl]phenyl}urea] | 2.28
7 | Cc1nc2ccc(C(=O)N3CCC(c4ccc(NC(=O)NCc5ccn6ccnc6c5)cc4)CC3)cc2o1 [Example 1028, 1-(imidazo[1,2-a]pyridin-7-ylmethyl)-3-(4-{1-[(2-methyl-1,3-benzoxazol-6-yl)carbonyl]piperidin-4-yl}phenyl)urea] | 7.36
8 | N#CC1(C(=O)N2CCC(c3ccc(NC(=O)NCc4ccn5ccnc5c4)cc3)CC2)CCCC1 [Example 1030, 1-(4-{1-[(1-cyanocyclopentyl)carbonyl]piperidin-4-yl}phenyl)-3-(imidazo[1,2-a]pyridin-7-ylmethyl)urea] | 2.04
9 | N#Cc1ccc(F)c(C(=O)N2CCC(c3ccc(NC(=O)NCc4ccn5ccnc5c4)cc3)CC2)c1 [Example 1033, 1-{4-[1-(5-cyano-2-fluorobenzoyl)piperidin-4-yl]phenyl}-3-(imidazo[1,2-a]pyridin-7-ylmethyl)urea] | 1.97
10 | O=C(NCc1ccn2ccnc2c1)Nc1ccc(C2CCN(C(=O)c3cnc4c(c3)CCCC4)CC2)cc1 [Example 1035, 1-(imidazo[1,2-a]pyridin-7-ylmethyl)-3-{4-[1-(5,6,7,8-tetrahydroquinolin-3-ylcarbonyl)piperidin-4-yl]phenyl}urea] | 3.04
11 | O=C(NCc1ccn2ccnc2c1)Nc1ccc(C2CCN(C(=O)c3cnc4c(c3)CCCO4)CC2)cc1 [Example 1036, 1-{4-[1-(3,4-dihydro-2H-pyrano[2,3-b]pyridin-6-ylcarbonyl)piperidin-4-yl]phenyl}-3-(imidazo[1,2-a]pyridin-7-ylmethyl)urea] | 16
12 | O=C(NCc1ccn2ccnc2c1)Nc1ccc(C2CCN(C(=O)c3ccc4ccncc4c3)CC2)cc1 [Example 1037, 1-(imidazo[1,2-a]pyridin-7-ylmethyl)-3-{4-[1-(isoquinolin-7-ylcarbonyl)piperidin-4-yl]phenyl}urea] | 7.76
13 | CCOc1cc(C(=O)N2CCC(c3ccc(NC(=O)NCc4ccn5ccnc5c4)cc3)CC2)ccn1 [Example 1043, 1-(4-{1-[(2-ethoxypyridin-4-yl)carbonyl]piperidin-4-yl}phenyl)-3-(imidazo[1,2-a]pyridin-7-ylmethyl)urea] | 10.4
14 | Cn1c(C(=O)N2CCC(c3ccc(NC(=O)NCc4ccn5ccnc5c4)cc3)CC2)cc2occc21 [Example 1045, 1-(imidazo[1,2-a]pyridin-7-ylmethyl)-3-(4-{1-[(4-methyl-4H-furo[3,2-b]pyrrol-5-yl)carbonyl]piperidin-4-yl}phenyl)urea] | 6.69
15 | CC1Cc2cc(C(=O)N3CCC(c4ccc(NC(=O)NCc5ccn6ccnc6c5)cc4)CC3)ccc2O1 (stereo not drawn) [Example 1046, 1-(imidazo[1,2-a]pyridin-7-ylmethyl)-3-(4-{1-[(2-methyl-2,3-dihydro-1-benzofuran-5-yl)carbonyl]piperidin-4-yl}phenyl)urea] | 4.61
16 | CCn1ncc(Cl)c1C(=O)N1CCC(c2ccc(NC(=O)NCc3ccn4ccnc4c3)cc2)CC1 [Example 1047, 1-(4-{1-[(4-chloro-1-ethyl-1H-pyrazol-5-yl)carbonyl]piperidin-4-yl}phenyl)-3-(imidazo[1,2-a]pyridin-7-ylmethyl)urea] | 0.205
17 | O=C(NCc1ccn2ccnc2c1)Nc1ccc(C2CCN(C(=O)c3cccc4ccncc34)CC2)cc1 [Example 1049, 1-(imidazo[1,2-a]pyridin-7-ylmethyl)-3-{4-[1-(isoquinolin-8-ylcarbonyl)piperidin-4-yl]phenyl}urea] | 2.39

The remaining compounds from weak to strong by IC50, led by results:

Row | IC50 [nM] | SMILES
18 | 13.4 | O=C(NCc1ccn2ccnc2c1)Nc1ccc(C2CCN(C(=O)/C=C/c3ccccn3)CC2)cc1 [Example 1040, 1-(imidazo[1,2-a]pyridin-7-ylmethyl)-3-(4-{1-[(2E)-3-(pyridin-2-yl)prop-2-enoyl]piperidin-4-yl}phenyl)urea]
19 | 8.88 | O=C(NCc1ccn2ccnc2c1)Nc1ccc(C2CCN(C(=O)c3ccc4cccnc4c3)CC2)cc1 [Example 1032, 1-(imidazo[1,2-a]pyridin-7-ylmethyl)-3-{4-[1-(quinolin-7-ylcarbonyl)piperidin-4-yl]phenyl}urea]
20 | 8.27 | N#Cc1cc(F)cc(C(=O)N2CCC(c3ccc(NC(=O)NCc4ccn5ccnc5c4)cc3)CC2)c1 [Example 1048, 1-{4-[1-(3-cyano-5-fluorobenzoyl)piperidin-4-yl]phenyl}-3-(imidazo[1,2-a]pyridin-7-ylmethyl)urea]
21 | 7.84 | O=C(NCc1ccn2ccnc2c1)Nc1ccc(C2CCN(C(=O)c3cnc4ccccc4n3)CC2)cc1 [Example 1038, 1-(imidazo[1,2-a]pyridin-7-ylmethyl)-3-{4-[1-(quinoxalin-2-ylcarbonyl)piperidin-4-yl]phenyl}urea]
22 | 7.73 | O=C(NCc1ccn2ccnc2c1)Nc1ccc(C2CCN(C(=O)c3cnnc4ccccc34)CC2)cc1 [Example 1031, 1-{4-[1-(cinnolin-4-ylcarbonyl)piperidin-4-yl]phenyl}-3-(imidazo[1,2-a]pyridin-7-ylmethyl)urea]
23 | 6.87 | O=C(NCc1ccn2ccnc2c1)Nc1ccc(C2CCN(C(=O)C3COc4ccccc4O3)CC2)cc1 (stereo not drawn) [Example 1023, 1-{4-[1-(2,3-dihydro-1,4-benzodioxin-2-ylcarbonyl)piperidin-4-yl]phenyl}-3-(imidazo[1,2-a]pyridin-7-ylmethyl)urea]
24 | 6.87 | COc1ncccc1/C=C/C(=O)N1CCC(c2ccc(NC(=O)NCc3ccn4ccnc4c3)cc2)CC1 [Example 1039, 1-(imidazo[1,2-a]pyridin-7-ylmethyl)-3-(4-{1-[(2E)-3-(2-methoxypyridin-3-yl)prop-2-enoyl]piperidin-4-yl}phenyl)urea]
25 | 6.29 | O=C(NCc1ccn2ccnc2c1)Nc1ccc(C2CCN(C(=O)c3cc(C4CC4)no3)CC2)cc1 [Example 1034, 1-(4-{1-[(3-cyclopropyl-1,2-oxazol-5-yl)carbonyl]piperidin-4-yl}phenyl)-3-(imidazo[1,2-a]pyridin-7-ylmethyl)urea]
26 | 3.59 | Cc1cccn2cc(C(=O)N3CCC(c4ccc(NC(=O)NCc5ccn6ccnc6c5)cc4)CC3)nc12 [Example 1042, 1-(imidazo[1,2-a]pyridin-7-ylmethyl)-3-(4-{1-[(8-methylimidazo[1,2-a]pyridin-2-yl)carbonyl]piperidin-4-yl}phenyl)urea]
27 | 2.93 | O=C(NCc1ccn2ccnc2c1)Nc1ccc(C2CCN(C(=O)c3ccnn3C(F)F)CC2)cc1 [Example 1022, 1-[4-(1-{[1-(difluoromethyl)-1H-pyrazol-5-yl]carbonyl}piperidin-4-yl)phenyl]-3-(imidazo[1,2-a]pyridin-7-ylmethyl)urea]
28 | 2.41 | Cc1cc(Cl)c(C(=O)N2CCC(c3ccc(NC(=O)NCc4ccn5ccnc5c4)cc3)CC2)c(C)n1 [Example 1041, 1-(4-{1-[(4-chloro-2,6-dimethylpyridin-3-yl)carbonyl]piperidin-4-yl}phenyl)-3-(imidazo[1,2-a]pyridin-7-ylmethyl)urea]
29 | 2.29 | Cc1ccc(F)c(C(=O)N2CCC(c3ccc(NC(=O)NCc4ccn5ccnc5c4)cc3)CC2)n1 [Example 1017, 1-(4-{1-[(3-fluoro-6-methylpyridin-2-yl)carbonyl]piperidin-4-yl}phenyl)-3-(imidazo[1,2-a]pyridin-7-ylmethyl)urea]
30 | 1.64 | O=C(NCc1ccn2ccnc2c1)Nc1ccc(C2CCN(C(=O)c3ccnc(Cl)c3F)CC2)cc1 [Example 1018, 1-(4-{1-[(2-chloro-3-fluoropyridin-4-yl)carbonyl]piperidin-4-yl}phenyl)-3-(imidazo[1,2-a]pyridin-7-ylmethyl)urea]
31 | 1.11 | O=C(NCc1ccn2ccnc2c1)Nc1ccc(C2CCN(C(=O)c3ccn(C4CCCC4)n3)CC2)cc1 [Example 1021, 1-(4-{1-[(1-cyclopentyl-1H-pyrazol-3-yl)carbonyl]piperidin-4-yl}phenyl)-3-(imidazo[1,2-a]pyridin-7-ylmethyl)urea]
32 | 0.901 | O=C(NCc1ccn2ccnc2c1)Nc1ccc(C2CCN(C(=O)C3(c4ccccn4)CC3)CC2)cc1 [Example 1020, 1-(imidazo[1,2-a]pyridin-7-ylmethyl)-3-[4-(1-{[1-(pyridin-2-yl)cyclopropyl]carbonyl}piperidin-4-yl)phenyl]urea]
33 | 0.272 | Cc1cc(C(=O)N2CCC(c3ccc(NC(=O)NCc4ccn5ccnc5c4)cc3)CC2)n(C(C)(C)C)n1 [Example 1029, 1-(4-{1-[(1-tert-butyl-3-methyl-1H-pyrazol-5-yl)carbonyl]piperidin-4-yl}phenyl)-3-(imidazo[1,2-a]pyridin-7-ylmethyl)urea]
